Results from patent US12522579B2, “Monoamine oxidase B imaging probe” (TOHOKU UNIVERSITY, priority 2018, dated 2026).

What was measured:
MAO-A = MAO-A (Homo sapiens (Human), UniProt P21397); assay: Competitive binding test against MAO-A with [18F] Fluoroethyl harmine; details: for IC50: label ligand [18F] Fluoroethyl harmine; for binding against MAO-A (in words): competitive binding test
Description: MAO-A (M7316) was purchased from Sigma Aldrich Co. LLC (St. Louis, MO). The […] (0.5 μg) and 0.1 to 10,000 nM of [^18F] Fluoroethyl harmine (10 μCi/mL, 2 nM) […] were mixed (200 μL), and the mixture was reacted at room temperature for 1 hour. The reaction solution was transfered to MultiScreen HTS 96-well 0.65 μm filtration plate (Millipore, Billerica, MA), and a B/F separation was conducted with MultiScreen HTS Vacuum Manifold, and washed with Dulbecco's PBS and 0.1% BSA three times, and a radioactivity contained in a filter was measured with a gamma counter (AccFLEX γ7000, manufactured from ALOKA Co. Ltd.). The IC50 value was calculated similarly to the case of MAO-B.

tau = tau (Homo sapiens, UniProt P10636); assay: Competitive binding against tau in Alzheimer's disease brain with [3H] MK-6240; details: for IC50: Alzheimer's disease brain (Braak stage VI), label ligand [3H] MK-6240; for binding to tau (in words): competitive binding test
tau, sequence (P10636 2-758 limits assumed): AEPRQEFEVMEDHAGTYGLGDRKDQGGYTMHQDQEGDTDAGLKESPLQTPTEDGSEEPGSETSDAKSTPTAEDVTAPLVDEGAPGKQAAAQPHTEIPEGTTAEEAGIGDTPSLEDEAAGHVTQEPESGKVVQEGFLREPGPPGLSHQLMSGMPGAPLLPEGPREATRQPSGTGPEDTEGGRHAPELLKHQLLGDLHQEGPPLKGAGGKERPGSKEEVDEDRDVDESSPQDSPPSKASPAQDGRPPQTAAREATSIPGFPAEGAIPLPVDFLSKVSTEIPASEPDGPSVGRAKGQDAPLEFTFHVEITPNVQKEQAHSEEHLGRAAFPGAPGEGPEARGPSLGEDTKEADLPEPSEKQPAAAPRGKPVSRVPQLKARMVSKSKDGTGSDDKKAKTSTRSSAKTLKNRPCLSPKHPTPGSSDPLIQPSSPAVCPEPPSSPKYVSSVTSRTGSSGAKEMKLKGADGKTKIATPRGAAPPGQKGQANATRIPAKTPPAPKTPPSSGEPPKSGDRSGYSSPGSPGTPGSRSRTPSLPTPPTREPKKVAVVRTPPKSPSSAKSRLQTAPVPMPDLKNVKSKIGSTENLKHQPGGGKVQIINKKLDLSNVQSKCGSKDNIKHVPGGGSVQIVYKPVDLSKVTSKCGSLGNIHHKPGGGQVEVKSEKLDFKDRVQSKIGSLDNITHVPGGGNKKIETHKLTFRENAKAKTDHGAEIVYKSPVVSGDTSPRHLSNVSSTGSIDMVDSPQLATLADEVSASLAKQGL
Description: A binding affinity against tau containined in a AD brain was conducted by using Alzheimer's disease brain (Braak stage VI) and [3H] MK-6240 (manufactured by Metck & Co) as a label ligand. The IC50 value was calculated similarly to the case of MAO-B.

MAO-B [1] = molecular target: T1, MAO-B (Homo sapiens (Human), UniProt P27338); assay: Competitive binding test against MAO-B with [3H] THK-5351; details: for IC50: MAO-B membrane fractions, label ligand [3H] THK-5351; for binding to MAO-B (in words): competitive binding test
T1 sequence (P27338 whole entry): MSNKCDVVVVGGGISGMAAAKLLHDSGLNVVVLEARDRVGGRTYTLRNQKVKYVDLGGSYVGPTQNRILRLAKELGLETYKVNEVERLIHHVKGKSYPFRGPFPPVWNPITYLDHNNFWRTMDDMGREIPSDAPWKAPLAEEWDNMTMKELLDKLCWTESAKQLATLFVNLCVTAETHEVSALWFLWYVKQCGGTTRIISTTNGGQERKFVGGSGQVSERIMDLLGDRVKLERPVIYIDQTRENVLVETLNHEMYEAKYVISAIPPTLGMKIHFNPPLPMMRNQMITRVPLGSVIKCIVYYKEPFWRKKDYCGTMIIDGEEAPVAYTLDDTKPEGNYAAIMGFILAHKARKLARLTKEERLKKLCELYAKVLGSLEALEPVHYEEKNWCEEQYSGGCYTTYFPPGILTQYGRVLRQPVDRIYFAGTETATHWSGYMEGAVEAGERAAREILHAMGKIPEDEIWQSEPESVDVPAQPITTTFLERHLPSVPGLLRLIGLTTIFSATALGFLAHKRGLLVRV
Description: MAO-B (M7441) was purchased from Sigma Aldrich Co. LLC (St. Louis, MO). The MAO-B membrane fractions (0.5 μg), and 0.1 to 10,000 nM of [3H] […] The reaction solution was transferred to MultiScreen HTS 96-well […] filtration plate (Millipore, Billerica, MA), and a B/F separation was conducted with a MultiScreen HTS Vacuum Manifold, and the mixture was washed with Dulbecco's PBS, and 0.1% BSA three times, and the filter was incubated with 2 mL of Scintillation fluid (Emulssifer-Safe; Perkin Elemer, Boston, MA), and a radio activity was measured with a beta counter (LS6500 liquid scintillation counter, Beckman Counter, Brea, CA). IC50 value was calculated by using Graph Pad Prism Version 7 (GraphPad Software, San Diego, CA).

MAO-B [2] = molecular target: T1, MAO-B; assay: In vitro autoradiography of human necropsy brain sections; format: binding
Description: Each […] slice frozen section of a normal necropsy brain (person) and an Alzheimer's disease necropsy brain (person; neurofibrillary tangles stage was Braak stage VI) was dried at room temperature, and phosphate buffered saline (PBS) was added thereto and the wetting treatment was consucted for 30 minutes. Pre-incubation was conducted for 30 minutes by using PBS containing 1% bovine serum albumin (BSA). A PBS (370 kBq/mL) containing 1% BSA of the ^18F labeled compound were added dropwise to the section, and the reaction was conducted at room temperature for 30 minutes. In order to evaluate a specific binding to MAO-B, a similar reaction to the above reaction was conducted in the presence of MAO-B selective inhibitor (that is, Lazabemide) (10 μM). After that, the section was washed by soaking it in PBS containing 1% BSA for 5 minutes, and further in PBS for 5 minutes twice. After the section was dried at room temperature, an imaging plate (GE healthcare, BAS-MS 2025) was exposed to light, and an image (spartial resolution 25 μm×25 μm) was acquired by a FLA-9500 imaging analyzer plate (GE healthcare). The adjacent sections were subjected to an immunostaining using MAO-B (manufactured from Sigma, Aldrich, Co. LLC), AT8 tau (manufactured from Innogenetics, N.V.), or 6F/3D 6-amyloid (DAKO) antibody, and the resulting stainned distributions were compared with a distribution of a binding to tracer. Similar tests were conducted by using as comparative compound, (S)-[^18F] HK-5174 (WO 2017/103257 A1), and(S)-[^18F] THK-5351, each having the following structural formula respectively.

[3] = Dynamic evaluation (body distribution) in normal mouse; format: in vivo; details: bone accumulation, male ICR mouse
Description: Each saline containing [^18F] HK-5470 as the compound of the present invention, (S)-[^18F] HK-5174 as the comparative compound, or [^18F] HK-5351 as the ^18F labeled-compound (740 kBq) was administered intravenously via tail to male ICR mouse (6 weeks old), and after 2 min., 10 min., 30 min., 60 min., and 120 min., cervical dislocation of mouse was performed under ether anesthesia, and each organ tissue including brain was extracted, and a weight and a radioactivity of each organ was measured with Gamma counter (AccuFLEX γ7000, measured by Hitachi-Aloka Medical, Tokyo). The accumulation of radioactivity was evaluated by making the ratio of radioactivity per weight of tissue against total administered radioactivity (% Injected Dose/g of tissue; % ID/g) an index. The evaluation was conducted in a ratio of four per group.

MAO-A, sequence (P21397 whole entry): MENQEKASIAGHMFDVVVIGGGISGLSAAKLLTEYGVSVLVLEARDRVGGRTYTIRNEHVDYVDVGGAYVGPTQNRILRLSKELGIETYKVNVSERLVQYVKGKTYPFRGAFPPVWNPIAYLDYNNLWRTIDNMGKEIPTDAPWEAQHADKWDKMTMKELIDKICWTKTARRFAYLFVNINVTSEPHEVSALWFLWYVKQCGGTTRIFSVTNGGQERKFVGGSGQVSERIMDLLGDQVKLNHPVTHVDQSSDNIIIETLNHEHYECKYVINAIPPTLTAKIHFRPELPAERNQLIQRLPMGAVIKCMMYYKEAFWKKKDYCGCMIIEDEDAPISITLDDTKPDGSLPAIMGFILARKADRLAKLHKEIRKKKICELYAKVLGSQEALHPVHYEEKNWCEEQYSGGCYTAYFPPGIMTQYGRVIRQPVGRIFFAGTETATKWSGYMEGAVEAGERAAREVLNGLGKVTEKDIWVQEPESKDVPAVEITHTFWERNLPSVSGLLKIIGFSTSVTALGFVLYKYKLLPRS

IC50 (MAO-A) [nM] | IC50 (tau) [nM] | binding to tau (in words) (tau) | IC50 (MAO-B [1]) [nM] | binding to MAO-B (in words) (MAO-B [1]) | binding against MAO-A (in words) (MAO-A) | defluorination to bone [3] | SMILES | accumulation in Alzheimer's disease (AD) frontal lobe sections (MAO-B [2]; 18F labeled compound 370 kBq/mL, autoradiography) | binding in the presence of MAO-B selective inhibitor Lazabemide (MAO-B [2]; Lazabemide 10 μM, AD frontal lobe section) | specificity of binding (autoradiography conclusion) (MAO-B [2]; human brain sections, compared with MAO-B and tau immunostaining)
> 10000 | 150 | mild binding | 5 | high binding | – | – | CNc1ccc(-c2ccc3cc(OC[C@H](O)CF)ccc3n2)cn1 [THK-5351, reference compound] | – | – | –
713 | 4460 | – | – | – | – | – | Cc1ccc(-c2ccc3cc(OC[C@H](O)CF)ccc3n2)cn1 [THK-5470] | – | – | –
1740 | 192 | low binding | 12.9 | significantly high binding | low binding | – | Cc1cc(-c2ccc3cc(OC[C@H](O)CF)ccc3n2)ccn1 [THK-5471] | – | – | –
> 10000 | > 10000 | low binding | 550 | – | low binding | – | Cc1ncccc1-c1ccc2cc(OC[C@H](O)CF)ccc2n1 [THK-5472] | – | – | –
> 10000 | > 10000 | low binding | 294 | – | low binding | – | Cc1ccncc1-c1ccc2cc(OC[C@H](O)CF)ccc2n1 [THK-5473] | – | – | –
> 10000 | 9630 | low binding | 12.2 | significantly high binding | low binding | – | Cc1cncc(-c2ccc3cc(OC[C@H](O)CF)ccc3n2)c1 [THK-5474] | – | – | –
– | – | – | – | – | – | could not be confirmed | CNc1ccc(-c2ccc3cc(OC[C@H](O)C[18F])ccc3n2)cn1 [[^18F] THK-5351] | high accumulation | decrease in the binding | binds to both MAO-B and tau
